Data taken from PubChem BioAssay AID179 (DTP/NCI, 2004).
pEC50, pIC50: −log10 of the molar value. Calls of active or inactive are those of the source.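 Rule for the calls: active = compounds giving half or more protection of infected cells from virus-caused growth loss, again on retest; inactive = the rest.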

Tested on: CEM cells HIV-1 protection, formazan growth assay
Assay: NCI AIDS Antiviral Assay
Conditions: for pIC50: measured here: growth of uninfected CEM cells
Summary of the method: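 Category rules: moderately active means at least 50% protection on retest, and confirmed active means 100% protection reproducibly. The underlying data came from a formazan growth assay in HIV-1-infected CEM cells.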

## CC1CCC2(CC1)N=C1CCC(C)CC1C1(CCC(C)CC1)N2 (stereo unspecified)
  pEC50: < 3.70
  pIC50: 4.01

## COc1cc(/C=C2\CC/C(=C\c3cc(OC)c(O)c(OC)c3)C2=O)cc(OC)c1O
  pEC50: < 3.70
  pIC50: 5.99

## C1CCN2CC3CONC3C2C1 (stereo unspecified)
  pEC50: < 2.83
  pIC50: < 2.83

## CCOC(=O)c1cn(C)c2c1C(=O)C(C(=O)OCC)CC(=O)N2 (stereo unspecified)
  pEC50: < 3.54
  pIC50: 3.75

## CN1C(NN)=NS(=O)(=O)c2ccccc21
  pEC50: < 3.94
  pIC50: 4.02

## O=C1c2ccccc2C(=O)C1(Cl)C(Cl)c1ccc([N+](=O)[O-])cc1 (stereo unspecified)
  pEC50: < 3.70
  pIC50: 4.92

## C/C(O)=C(/C=N\C(=S)Nc1ccc(Cl)c(Cl)c1)C(=O)Nc1ccccc1C
  pEC50: < 4.10
  pIC50: 4.39

## N#C/C(=C\NC(=S)Nc1cc(Cl)ccc1Cl)C(=O)c1ccc2ccccc2c1
  pEC50: < 4.00
  pIC50: < 4.00

## Nc1ccnc(N)c1N=O
  pEC50: < 3.70
  pIC50: 4.56

## O=c1[nH]nc(-c2ccccc2)n1/N=C/c1ccncc1
  pEC50: < 3.70
  pIC50: 4.28

## CC1(C)OCC(C2OC(N3O[C@H](CI)C[C@@H]3c3ccccc3)C3OC(C)(C)OC23)O1 (stereo partly specified)
  pEC50: 3.86
  pIC50: < 3.70

## C1CCC(CC[N+]23CC[N+](CCC4CCCC4)(CC2)C3)C1
  pEC50: < 3.16
  pIC50: 3.46

## COc1ccc(/C=N/Nc2nc(-c3cc4oc(=O)n(C)c4cc3Cl)cs2)cc1OC
  pEC50: < 4.93
  pIC50: < 4.93

## CCOC(=O)C(=O)Nc1ccc(Cl)cc1C
  pEC50: < 3.41
  pIC50: 3.48

## Oc1c(N2CCCCC2)cc(-c2cc(N3CCCCC3)c(O)c3ccccc23)c2ccccc12
  pEC50: < 3.70
  pIC50: 4.52

## Cc1nn(C(=O)c2ccc(Cl)cc2)c2c1C(c1ccccc1[N+](=O)[O-])SC(N)=N2 (stereo unspecified)
  pEC50: < 3.70
  pIC50: 3.98

## COC(=O)[C@H]1[C@@H](C(C)C)O[C@@H](C(C)C)O[C@H]1C(F)(F)F
  pEC50: < 3.70
  pIC50: < 3.70

## O=c1cc(O)c2c(O)cc(O)cc2o1
  pEC50: < 3.70
  pIC50: < 3.70

## CC(C)(C)OC(=O)/N=C/c1c(O)c2ccccc2oc1=O
  pEC50: < 3.70
  pIC50: 4.52

## COc1ccc(-c2coc3cc(O)ccc3c2=O)cc1
  pEC50: < 3.70
  pIC50: < 4.00

## Cc1nc2ccccc2c(=O)n1NC(=O)c1ccc(CS)cc1
  outcome: inactive

## COc1ccc(N=[N+]([O-])c2ccc(OC)cc2)cc1
  pEC50: < 3.70
  pIC50: < 3.70

## N#CCc1c(C2(c3ccncc3)OCCO2)[nH]c2ccccc12
  pEC50: < 3.93
  pIC50: 3.96

## Cc1ccc(C)n1-c1ccccc1C1C=Cn2c(=O)oc3c(OC(C)C)c(OC(C)C)c(O)c1c32 (stereo unspecified)
  pEC50: < 3.70
  pIC50: 4.79

## CCOC(=O)N1CCc2cc(OC)c(OC)c3c2C1CC3=O (stereo unspecified)
  outcome: inactive

## c1ccc2c(c1)N=C(c1ccc3ccccc3c1)CC(c1cccc3ccccc13)S2 (stereo unspecified)
  pEC50: < 5.60
  pIC50: < 5.60

## Cc1cccc(NC(=O)CC(=O)N2N=C(N3c4ccccc4Sc4ccccc43)CC2c2ccccc2)c1 (stereo unspecified)
  pEC50: < 3.82
  pIC50: < 3.82

## COc1ccccc1NC(=S)Nc1ccccn1
  pEC50: < 3.70
  pIC50: < 3.70

## N=C1SC23CCCN2C(=O)C2(CCCN2C3=O)S1
  pEC50: < 3.05
  pIC50: 3.76

## O=C(O)CN(CCN(CC(=O)O)CC(=O)O)CCN(CC(=O)O)CC(=O)O
  pEC50: < 3.70
  pIC50: < 3.70

## CSC1=C(C#N)C(=O)N(c2ccc(Cl)cc2)C(=O)C1C#N (stereo unspecified)
  pEC50: < 3.70
  pIC50: 3.87

## CCN(CC)CCSc1nc2c([N+](=O)[O-])cccc2[nH]1
  outcome: inactive

## CC12CCC(CC1)C(C)(C)N=C(N)S2
  pEC50: < 3.70
  pIC50: 4.25

## CC(OC(C)(C)C)[C@H](NC(=O)OC(C)(C)C)C(=O)O (stereo partly specified)
  pEC50: < 3.56
  pIC50: < 3.56

## Cn1c(COC(=O)Nc2ccccc2)c(COC(=O)Nc2ccccc2)c2ccc3ccccc3c21
  pEC50: < 3.70
  pIC50: 6.47

## C/C=C(\C)c1cc(OC)c(C)c2c1C(=O)Oc1c(C)c(O)c(Cl)c(/C(C)=C/C)c1O2
  outcome: inactive

## Cc1cc(C)c(C(=O)c2cccc(C)c2C(=O)O)c(C)c1
  pEC50: < 3.70
  pIC50: < 3.70

## O=S(=O)([O-])C(F)(F)F.[Ru+2].[Ru+2].c1ccc2c(c1)Cc1ccccc1-2
  pEC50: < 4.00
  pIC50: < 4.00

## O=[N+]([O-])C(=C(\Cl)NCCO)/C(Cl)=C(/Cl)Br
  pEC50: < 4.70
  pIC50: 6.00

## CCN(CC)CCCC(C)Nc1c2cc(OC)cc(C)c2nc2c(C)c(Cl)ccc12 (stereo unspecified)
  outcome: inactive

## N#CC(c1ccccc1)N(CCc1ccccc1)C(=O)c1ccc(C(=O)N(CCc2ccccc2)C(C#N)c2ccccc2)cc1 (stereo unspecified)
  pEC50: < 3.70
  pIC50: 4.55

## COP1(=S)OCC(C(C)(C)C)CO1 (stereo unspecified)
  pEC50: < 4.24
  pIC50: < 4.24

## COC(=O)c1cc(C(=CCCOS(C)(=O)=O)c2cc(Cl)c(OC)c(C(=O)OC)c2)cc(Cl)c1OC
  pEC50: < 3.70
  pIC50: 4.84
